From PMC5750217 (Nature Communications, 2018)

Biological target: T1, wild-type GltPh (Pyrococcus horikoshii, UniProt O59010)
T1 construct: hexa-His (N, cleaved yes); made in house; host or cells: Escherichia coli Top10 (pBAD)
T1 sequence (O59010 1-425): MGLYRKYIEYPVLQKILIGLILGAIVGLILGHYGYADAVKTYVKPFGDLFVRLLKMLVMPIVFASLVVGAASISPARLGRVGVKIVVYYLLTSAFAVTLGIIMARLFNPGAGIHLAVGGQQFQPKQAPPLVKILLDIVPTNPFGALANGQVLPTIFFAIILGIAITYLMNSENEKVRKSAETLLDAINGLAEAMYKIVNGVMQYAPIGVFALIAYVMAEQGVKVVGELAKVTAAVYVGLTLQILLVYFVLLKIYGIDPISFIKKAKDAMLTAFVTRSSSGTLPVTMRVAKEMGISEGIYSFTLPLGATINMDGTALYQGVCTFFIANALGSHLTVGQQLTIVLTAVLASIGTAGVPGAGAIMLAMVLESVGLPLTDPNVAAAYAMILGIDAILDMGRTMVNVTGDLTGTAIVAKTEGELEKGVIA
Assay: Proteoliposome transport assay, wild-type GltPh
Type: biochemical
Conditions: for Transport of radiolabelled substrate into proteoliposomes (in words): 1 µM L-[3H]substrate, Na+ gradient, pH 7.5
Experimental: Mutant and wild-type GltPh with an amino-terminal hexa-His tag were expressed in Escherichia coli Top10 cells (Invitrogen), which were grown in Luria broth medium at 37 °C. Ampicillin was added to a final concentration of 100 μg per ml. To induce expression of GltPh, 0.1% L-arabinose was added when cells reached an optical density of 0.6 at 660 nm, and cells were harvested 4 h post induction. Membranes were isolated, and then solubilised with n-dodecyl-β-D-maltopyranoside (C12M, Anatrace). Histidine containing proteins were purified using Ni^2+−nitrilotriacetic acid resin (Qiagen). The histidine tag was subsequently removed from GltPh by digestion with thrombin (10 U per mg protein) and the protein further purified on a Superdex 200 size exclusion column, where the detergent was exchanged to n-decyl-β-D-maltopyranoside (C10M, Anatrace).
Pure protein was reconstituted into liposomes composed of 75% E. coli Polar Lipid Extract and 25% 1-palmitoyl-2-oleoyl-sn-glycero-3 ^−phopshocholine (Avanti Polar Lipids). Lipids were mixed, dried under nitrogen and resuspended in internal buffer (100 mM KCl, 20 mM HEPES-Tris pH 7.5) using brief sonication (Laboratory Supplies Co.). The lipid suspension was frozen in liquid nitrogen and thawed at room temperature several times. Liposomes were formed by extrusion through 400 nm polycarbonate membranes (Avanti Polar Lipids) and were treated with Triton X-100 at a 0.5:1 (w/w) detergent to lipid ratio prior to the addition of protein at 0.25 μg protein per mg lipid. The protein/lipid mixture was left at room temperature for 30 min before detergent was removed using SM2 Biobeads (BioRad). The mixture was then incubated with gentle agitation, with four consecutive batches of Biobeads (80 mg per ml). Proteoliposomes were concentrated by centrifugation at 150,000 g for 30 min, resuspended at 100 mg lipid per ml and either used immediately or flash-frozen in liquid nitrogen and stored at −80 °C.
Mutant and wild-type GltPh-mediated transport of radiolabelled substrate was assayed by diluting proteoliposomes (100 mg lipid per ml) 133-fold into uptake buffer (100 mM NaCl, 20 mM HEPES-Tris pH 7.5, 1 μM valinomycin, 100 nM–1 µM L-[^3H]substrate) pre-warmed to 30 °C. At each time point, a 200 µl aliquot was removed and diluted 10-fold into ice-cold quench buffer (100 mM LiCl, 20 mM HEPES-Tris pH 7.5), followed by immediate filtration over nitrocellulose filters (0.22 μm pore size, Millipore). The filters were washed with ice-cold quench buffer and assayed for radioactivity using a Trilux beta counter (PerkinElmer). To establish substrate concentration–response curves, extraliposomal L-[^3H]substrate was varied between 500 nM and 100 µM, maintaining NaCl concentrations at 300 mM. For inhibitor concentration–response curves, for wild-type GltPh 100 nM L-[^3H]aspartate, and for mutant GltPh 1 µM L-[^3H]serine, was co-applied with varying inhibitor concentrations. Background levels of uptake were measured by diluting proteoliposomes into internal buffer (100 mM KCl, 20 mM HEPES-Tris pH 7.5) containing 1 µM of valinomycin and the indicated concentrations of L-[^3H]substrate.

| SMILES | IC50 for inhibition of L-[3H]aspartate transport (100 nM L-[3H]aspartate) | Transport of radiolabelled substrate into proteoliposomes (in words) |
| --- | --- | --- |
| N[C@@H](CCC(=O)Nc1ccc([N+](=O)[O-])cc1)C(=O)O [GPNA, glutamyl-p-nitroanilide] | ineffective | – |
| NC(=O)CC[C@H](N)C(=O)O [L-glutamine] | – | not transported |
| N[C@@H](CO)C(=O)O [L-serine] | – | not transported |
